Here are results for ten compounds from patent US8435966B2, “Associations of xanthogenates and cyclodextrins, and their use” (Biosphings AG, priority 2006, dated 2013).

The term LD50 denotes the dose expected to kill half of the subjects tested.

Series [1] can be described thus: Stabilization of various xanthates by methyl-beta-cyclodextrin at 60° C. (decomposition in water, detected by pH value and calibration curves). As to conditions: 24 h at 60° C.; for % Decomposition − Cyclodextrin / % Decomposition + Cyclodextrin: 10 mg/ml xanthate in water; for % Decomposition − Cyclodextrin: absence of cyclodextrin; for % Decomposition + Cyclodextrin: presence of 100 mg/ml methyl-beta-cyclodextrin; for Stabilization factor: decomposition without / with methyl-beta-cyclodextrin. The procedure: Solutions each containing 10 mg/ml methylxanthate, propylxanthate, butylxanthate, heptyixanthate, hexylxanthate, decylxanthate, isopropylxanthate, or tricyclo[5,2,1,0^2,6]-decylxanthate (D 609) in water were incubated for 24 h at 60° C. either in the presence or absence of 100 mg/ml methyl-beta-cyclodextrin. Xanthates decompose in aqueous medium into the corresponding alcohol, CS2, and, depending on the type of xanthate salt, KOH or NaOH. The decomposition of xanthates can therefore be detected quantitatively by measuring the pH value and using calibration curves.

Series [2] relates to erythrocytes. Description: Hemolytic effect of xanthates (OD 450 of supernatants of diluted blood). As to conditions: for 50% hemolysis (IC50): 30 minutes at room temperature. The procedure:
Venous blood was taken from female Balb C mice by retroorbital puncture and heparin was added to the blood. The blood was then diluted 1:75 using phosphate-buffered saline. Methyl-, butyl, and hexylxanthate as well as exo/exo D 609 were dissolved in phosphate-buffered saline (stock solution 10 mg/ml). 100 μl diluted blood and 100 μl diluted xanthate solution each were placed in 96-well microtiter plates to obtain final concentrations of 2, 1, 0.5, 0.25, 0.125, 0.063, and 0.031 mg/ml of xanthate. Saline served as the control. After incubation at room temperature for 30 minutes, a centrifugation at 5,000 g for 5 min was performed and the supernatants were removed. The absorption of the supernatants at 450 nm (OD 450) was measured using an ELISA-Reader. Dose-response curves (FIGS. 2 and 3) were used to determine the concentrations at which 50% of the maximal absorption was reached and at which, therefore, 50% of the erythrocytes were lysed (IC50).

Series [3] is described as follows: Stabilization of exo/exo D 609 by cyclodextrin at room temperature (decomposition in water, pH after 45 days). Format: physicochemical. The note with it: for decomposition / pH value of the solution: after 45 days. The procedure: The xanthate, D 609, decomposes in aqueous solutions to form the tricyclodecanol, CS2, and KOH. […] The pH value of the individual solutions was determined after 45 days using PANPEHA strips (Schleicher & Schüll). […] The pH value of the solution containing cyclodextrin was measured to be 7.0. This corresponds to <0.1% decomposition. Accordingly, the rate of decomposition is at least 1000-fold lower in the presence of cyclodextrin.

Series [4] concerns female Balb C mice. Description: Toxicity after intravenous application (survival 48 h after injection into the lateral tail vein). Format: in vivo. The note with it: for Animals receiving injections/surviving animals: 48 h. The protocol: The exo/exo isomer of D 609 or hexylxanthate were dissolved in 0.9% NaCl or 0.9% NaCl/30% hydroxy-beta-cyclodextrin at a concentration of 30 mg/ml. Subsequently, dilutions were prepared using 0.9% NaCl solution to obtain concentrations of 30, 20, 10, and 5 mg/ml D 609 or hexylxanthate. Three female Balb C mice each received injections of 0.2 ml/20 g body weight of each solutions into the lateral tail vein. The animals were monitored for 48 h after injection and survival was recorded.

The test system of series [5] is DNA and RNA virus species; tumor cells. As to conditions: from literature and U.S. Pat. No. 4,602,037; cited from earlier work.
The test system of series [6] is models of Alzheimer's disease. As to conditions: from literature; cited from earlier work.
Series [7] concerns multiple sclerosis model. As to conditions: from literature; cited from earlier work.
In series [8] the test system is animal model of stroke. As to conditions: from literature; cited from earlier work.
Series [9] deals with lung edemas. The note with it: from literature; cited from earlier work.
Series [10] relates to HSV-1, strain Angelotti. Description: Antiviral efficacy, plaque number in Calu-6 cells infected with HSV-1. The series is classed as cell-based. As to conditions: addition of cyclodextrin 1:1 or 1:2 to D609, Calu-6 cells, 72 h. The protocol:
Human lung carcinoma cells (Calu-6) in D-MEM medium (supplemented with 10% fetal calf serum) were seeded in 24-well plates (Greiner) (3×10^6 cells/plate each). After incubation for 24 h at 37° C. in a 5% CO2 atmosphere, the medium was decanted and 0.1 ml viral suspension (HSV-1, strain Angelotti, 200 plaque-forming units/ml) were added. After incubation at 37° C. for one hour, fresh medium (DMEM, 10% serum, 0.85 g NaHCO3/I) containing D609 (exo/exo isomer) or a mixture of D609 and beta-hydroxypropyl-cyclodextrin (b-HP) (Sigma, Munich, No 33, 260-7) was added.
The following concentrations were set-up:
After 72 h, the medium was decanted and the plates were fixed with 3% formalin and stained with 0.5% crystal violet. After the plates were dried, the number of plaques per well was determined and the means±standard deviation were calculated. The results (dose-response curves) are plotted in FIG. 4. […] Accordingly, the addition of beta-hydroxypropyl-cyclodextrin has no influence on the antiviral activity of D609.

Series [11] in a line: Stabilization effect of different cyclodextrins on D 609 at 60° C. (RP-18 thin layer plate). Format: physicochemical. The note with it: exo/exo D 609 with cyclodextrin, eight days at 60° C., TLC spots under UV (FIG. 1). The protocol: Exo/exo D 609 was dissolved in solutions (100 mg/ml) containing various cyclodextrins (10 mg/ml). The samples were incubated for eight days at 60° C. 10 μl of each sample were diluted with 90 μl of water and 100 μl ethylacetate/3 mg/ml p-bromoacetophenone were added. After shaking for 30 minutes, 5 μl of the ethylacetate phase each were applied to a RP-18 thin layer plate and the plate was placed for 15 minutes in a TLC chamber containing acetonitrile as mobile phase. A freshly prepared solution of 9 mg/ml D 609 plus 1 mg/ml of a D 609 solution that had been incubated at 95° C. for 48 h (decomposition control) was used as calibration sample. The D 609-specific spots were visualized under UV light and photographed.

Setting [12] is: 10 mg/ml in water with 100 mg/ml cyclodextrin.
Setting [13] is: in the presence of cyclodextrin.
[14] abbreviates: xanthate alone (absence of cyclodextrin).

Where two headings read alike, the source gives them in different places.

With `CCCCOC(=S)S` [Butyl, butylxanthate], in series [1], the “% Decomposition − Cyclodextrin” value turned out to be 20%, the “% Decomposition + Cyclodextrin” value is on record as 1% and the Stabilization factor stood at 20. Also, the “hemolytic effect / dose-response curves in the presence versus absence of cyclodextrin” value in series [2] (FIGS. 2 and 3) is given as “no significant differences”. Moreover, in series [2] (absence of cyclodextrin), the “concentration of complete hemolysis” value was determined as 1000 µg/mL and the “50% hemolysis (IC50)” value came out at 800 µg/mL. In addition, in series [2] (presence of cyclodextrin), the “concentration of complete hemolysis” value is 1000 µg/mL and the “50% hemolysis (IC50)” value amounted to 650 µg/mL.
As to `S=C([S-])OC1CC2CC1C1CCCC21.[K+]` (stereo not drawn) [D 609], the “% Decomposition − Cyclodextrin” value in series [1] is listed as 20%. The “% Decomposition + Cyclodextrin” value in series [1] was determined as 1%. For the same compound, the decomposition entry was “complete decomposition” in [3] (10 mg/ml in pure water) and below 0.1% in [3] (setting [12]). Further, the “pH value of the solution” value in [3] (10 mg/ml in pure water) is listed as 12.5; in series [3] (setting [12]), 7.0. For the same compound, in [3] (45 days, with versus without cyclodextrin), the “rate of decomposition lower in the presence of cyclodextrin” value was “at least 1000 fold”. For the same compound, the “Animals receiving injections/surviving animals” value in series [4] (Dose 50 mg/kg) was 3/3; in series [4] (Dose 100 mg/kg) it was 3/0; in series [4] (Dose 200 mg/kg), 3/0; in series [4] (Dose 300 mg/kg), 3/0. For the same compound, the “number of surviving animals, effect of cyclodextrin” value in series [4] (at the higher D 609-doses) is recorded as “clearly increased”. For the same compound, the LD50 stood at 250 mg/kg in series [4] (setting [13]) and 75 mg/kg in series [4] (setting [14]). Also, the “concentration of complete hemolysis” value in [2] is 500 µg/mL. In series [2], the “hemolytic effect / dose-response curves in the presence versus absence of cyclodextrin” value is recorded as “reduced strongly”. The “increase of the IC50 by a factor” value in series [2] stood at 6.4. For the same compound, the “50% hemolysis (IC50)” value in series [2] (absence of cyclodextrin) was 125 µg/mL; in [2] (presence of cyclodextrin) it was 800 µg/mL. Moreover, the known activity result in series [5] was “antiviral and antitumoral activity”. In addition, in series [6], the “effect in models of Alzheimer's disease” value is “protective properties”. The “effect in a multiple sclerosis model” value in series [7] was “protective effect”. The “effect in an animal model of stroke” value in series [8] is given as “protective effect”. Besides, the “effect on lung edemas” value in series [9] is given as “protection from lung edemas”.
`CCCCCCCCCCOC(=S)S` [Decyl, decylxanthate]: in series [1], the “% Decomposition − Cyclodextrin” value is reported as 10% and the “% Decomposition + Cyclodextrin” value is 1%.
For `CCOC(=S)S` [Ethyl], in series [1], the “% Decomposition − Cyclodextrin” value was determined as 10%, the “% Decomposition + Cyclodextrin” value is listed as 1% and the Stabilization factor is given as 10.
Regarding `CCCCCCOC(=S)S` [Hexylxanthate, hexylxanthate], the “% Decomposition − Cyclodextrin” value in series [1] was 20%. Moreover, in series [1], the “% Decomposition + Cyclodextrin” value was determined as 1%. The “Animals receiving injections/surviving animals” value in series [4] (Dose 50 mg/kg) was 3/3; in series [4] (Dose 100 mg/kg), 3/2; in series [4] (Dose 200 mg/kg), 3/0; in series [4] (Dose 300 mg/kg) it was 3/0. The LD50 in series [4] (setting [13]) and in series [4] (setting [14]) was 130 mg/kg in each case. The “concentration of complete hemolysis” value in series [2] worked out at 500 µg/mL. In addition, in [2], the “hemolytic effect / dose-response curves in the presence versus absence of cyclodextrin” value was “reduced strongly”. Also, the “increase of the IC50 by a factor” value in series [2] is listed as 2.5. For the same compound, the results for the “50% hemolysis (IC50)” value in series [2] (absence of cyclodextrin) and in series [2] (presence of cyclodextrin) were 300 µg/mL and 750 µg/mL, respectively.
Take `CC(C)OC(=S)S` [Isopropyl, isopropylxanthate]: in series [1], the “% Decomposition − Cyclodextrin” value worked out at 20%, the “% Decomposition + Cyclodextrin” value turned out to be 1% and the Stabilization factor came out at 20.
Take `COC(=S)S` [Methyl, methylxanthate]: in [1], the “% Decomposition − Cyclodextrin” value is 50%, the “% Decomposition + Cyclodextrin” value came to 1% and the Stabilization factor came to 50. Besides, the “hemolytic effect / dose-response curves in the presence versus absence of cyclodextrin” value in series [2] (FIGS. 2 and 3) is recorded as “no significant differences”. Besides, in series [2] (absence of cyclodextrin), the “concentration of complete hemolysis” value turned out to be 1000 µg/mL and the “50% hemolysis (IC50)” value was determined as 600 µg/mL. In [2] (presence of cyclodextrin), the “concentration of complete hemolysis” value worked out at 1000 µg/mL and the “50% hemolysis (IC50)” value turned out to be 650 µg/mL.
Turning to `CCCOC(=S)S` [Propyl, propylxanthate], in series [1], the “% Decomposition − Cyclodextrin” value turned out to be 20%, the “% Decomposition + Cyclodextrin” value stood at 2% and the Stabilization factor is reported as 10.
Turning to beta-hydroxypropyl-cyclodextrin, the “influence on the antiviral activity of D609” value in series [10] is “no influence”.
Take methyl-beta-cyclodextrin: in [11], the “protective effect from decomposition of D 609” value was “works the best by far”.
